Reference: patent US8188108B2, “Pharmaceutical composition” (priority 2002, dated 2012)
Read-outs that look alike come from different tables or passages of the source.

Key:
[1] = clinical; conditions: both, human, in vivo; for AUC(0-t) / AUC(0-inf) / Cmax: po, Least-Squares Means (LSM); for AUC(0-inf): AUCinf
[2] = Form A, plasma, Treatment A: one 10 mg/500 mg Lortab tablet + one 50 mg Colace capsule, single oral dose, fasting
[3] = Form A, plasma, Treatment A: Lortab 10 mg/500 mg + Colace 50 mg, single oral dose, fasting
[4] = Form B, plasma, Treatment B: Lortab 10 mg/500 mg alone, single oral dose, fasting
[5] = Form C, plasma, Treatment C: Lortab 10 mg/500 mg + Colace 50 mg, single oral dose, fed
[6] = Form D, plasma, Treatment D: Lortab 10 mg/500 mg alone, single oral dose, fed
[7] = plasma, fed vs fasting, Lortab + Colace co-administered, ln-transformed
[8] = plasma, fed vs fasting, Lortab administered alone, ln-transformed
[9] = plasma, with docusate vs without, fasting, ln-transformed
[10] = plasma, with docusate vs without, fed, ln-transformed

## CC(=O)Nc1ccc(O)cc1 [Acetaminophen, acetaminophen]
[1]; [2]
  AUC(0-t): 21000 ng·h/mL
[1]; Form B, plasma, Treatment B: one 10 mg/500 mg Lortab tablet alone, single oral dose, fasting
  AUC(0-t): 20700 ng·h/mL
[1]; [3]
  AUC(0-inf): 22700 ng·h/mL
  Cmax: 5450 ng/mL
[1]; [4]
  AUC(0-inf): 22000 ng·h/mL
  Cmax: 5920 ng/mL
[1]; [5]
  AUC(0-inf): 21500 ng·h/mL
  Cmax: 3940 ng/mL
[1]; [6]
  AUC(0-inf): 21400 ng·h/mL
  Cmax: 4020 ng/mL
Fed vs fasting
  effect of food on Cmax (rate of exposure): lowering the Cmax
plasma, Treatment D: one 10 mg/500 mg Lortab tablet alone, single oral dose, fed (30 min after start of standard breakfast)
  AUC 0-t, Least-Squares Means (LSM), Form D: 19545.72 ng·h/mL
[7]
  AUC 0-t, Ratio of LSM (C/A): 93.5%
  AUCinf, Ratio of LSM (C/A): 94.8%
  Cmax, Ratio of LSM (C/A): 72.3%
[8]
  AUC 0-t, Ratio of LSM (D/B): 94.3%
  AUCinf, Ratio of LSM (D/B): 97.3%
  Cmax, Ratio of LSM (D/B): 67.9%
[9]
  AUC 0-t, Ratio of LSM (A/B): 101.4%
  AUCinf, Ratio of LSM (A/B): 102.9%
  Cmax, Ratio of LSM (A/B): 92.0%
[10]
  AUC 0-t, Ratio of LSM (C/D): 100.5%
  AUCinf, Ratio of LSM (C/D): 100.3%
  Cmax, Ratio of LSM (C/D): 97.9%
Under fed and fasted conditions
  effect of docusate on the pharmacokinetics: no significant effect

## COc1ccc2c3c1O[C@H]1C(=O)CC[C@H]4[C@@H](C2)N(C)CC[C@]314 [Hydrocodone, hydrocodone]
[1]
  Tmax: ~1 h
[1]; Form A
  AUC(0-t): 135 ng·h/mL
  AUC(0-inf): 162 ng·h/mL
  Cmax: 24.3 ng/mL
[1]; Form B
  AUC(0-t): 132 ng·h/mL
  AUC(0-inf): 151 ng·h/mL
  Cmax: 24.2 ng/mL
[1]; Form C
  AUC(0-t): 142 ng·h/mL
  AUC(0-inf): 170 ng·h/mL
  Cmax: 22.3 ng/mL
[1]; Form D
  AUC(0-t): 146 ng·h/mL
  AUC(0-inf): 175 ng·h/mL
  Cmax: 22.9 ng/mL
both, human, in vivo
  AUC 0-t, Ratio of LSM (A/B): 102.5%
  AUC 0-t, Ratio of LSM (C/A): 105.0%
  AUC 0-t, Ratio of LSM (C/D): 97.4%
  AUC 0-t, Ratio of LSM (D/B): 110.6%
  AUCinf, Ratio of LSM (A/B): 107.2%
  AUCinf, Ratio of LSM (C/A): 105.0%
  AUCinf, Ratio of LSM (C/D): 97.4%
  AUCinf, Ratio of LSM (D/B): 115.6%
  Cmax, Ratio of LSM (A/B): 100.2%
  Cmax, Ratio of LSM (C/A): 91.7%
  Cmax, Ratio of LSM (C/D): 97.0%
  Cmax, Ratio of LSM (D/B): 94.6%
In vivo
  effect of docusate on the pharmacokinetics: no significant effect
  effect of food on Cmax (rate of exposure): no significant effect
  effect of food on extent of exposure (AUC): no significant effect

## CCCCC(CC)COC(=O)CC(C(=O)OCC(CC)CCCC)S(=O)(=O)O (stereo not shown) [Docusate, dioctyl sodium sulphosuccinate]
[1]; [2]
  AUC(0-t): 1170 ng·h/mL
[1]; [3]
  AUC(0-inf): 1170 ng·h/mL
  Cmax: 608 ng/mL
[1]; [5]
  AUC(0-inf): 1510 ng·h/mL
  Cmax: 635 ng/mL
50 mg Colace capsule oral, throughout the period of blood sampling
  absorption of docusate (measurable plasma concentrations): absorbed in measurable amounts
Fed vs fasting
  effect of food on Cmax (rate of exposure): not significantly affected by food
[7]
  AUC 0-t, Ratio of LSM (C/A): 124.2%
  AUCinf, Ratio of LSM (C/A): 128.8%
  Cmax, Ratio of LSM (C/A): 104.4%
plasma, fed vs fasting, Lortab + Colace co-administered, ln-transformed, listed as docusate
  Cmax, Ratio of LSM (C/A): 104.5%
